The values below come from patent US20240025906A1 (NEURON23, INC., priority 2022, published 2024).

pIC50, pKd: −log10 of the molar value.

One experiment addresses T1, TYK2 JH2 (Homo sapiens, UniProt P29597).
T1 construct: purchased DiscoverX (KINOMEscan KdELECT service); host or cells: E. coli BL21-derived (T7 phage display) or HEK-293
Briefly: TYK2 JH2 binding assay (KINOMEscan KdELECT competitive binding). Particulars: TYK2 JH2 domain, KINOMEscan KdELECT (Assay A); read-out: Biochemical TYK2_DiscoverX_JH2_BND_Kd. The method in brief: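 Kd values come from qPCR measurement of kinase retained on an immobilized-ligand resin after 1 h room-temperature competition with compound in an 11-point, 3-fold series.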

The subject of experiment [1] is JAK1/TYK2 pSTAT5 (Tyr694/699) in THP-1 cell line. Briefly: IFNa-stimulated JAK1/TYK2 pSTAT5 (Tyr694/699) inhibition cellular assay, AlphaLISA. In kind it is cell-based. Particulars: Homo sapiens; THP-1 cells, IFNa-stimulated pSTAT5 (Tyr694/699), AlphaLISA (Assay B); read-out: Cellular_THP1_IFNa-pSTATS_TYK2. In a few lines:
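The readout is AlphaLISA signal at 615 nm for phospho-STAT5 in THP-1 lysates after IFNa stimulation (added at 100 ng/mL, 30 min, 37 °C). Cells had compound for 1 h beforehand across eight 6-fold concentrations up to 10000 nM final. IC50s are 4PL fits with bottom and Hill slope constrained.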

T1 sequence (P29597 589-875 limits assumed): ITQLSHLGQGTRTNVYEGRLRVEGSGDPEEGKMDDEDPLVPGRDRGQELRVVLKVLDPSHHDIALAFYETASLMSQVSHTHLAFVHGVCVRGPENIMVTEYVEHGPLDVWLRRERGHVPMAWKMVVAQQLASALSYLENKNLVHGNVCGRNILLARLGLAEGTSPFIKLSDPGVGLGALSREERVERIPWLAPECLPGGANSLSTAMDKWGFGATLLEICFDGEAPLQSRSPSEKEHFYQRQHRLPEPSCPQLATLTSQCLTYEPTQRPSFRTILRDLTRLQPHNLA

With `CNc1ncc(-c2nc3ccc(C4=CCOCC4)cn3n2)c2cc(NC(=O)C3CC3)ncc12` [Example 1034], the pKd on TYK2 JH2 is no less than 7.00. In addition, the pIC50 in experiment [1] is no less than 6.30.
As to `CNc1ncc(-c2nc3ccc(C4CCOCC4)cn3n2)c2cc(NC(=O)C3CC3)ncc12` [Example 1035], the pKd on TYK2 JH2 was no less than 7.00. The pIC50 in experiment [1] was no less than 6.30.
In the case of `CNc1ncc(-c2nc3c(F)cc(N4CCOCC4)cn3n2)c2cc(NC(=O)C3CC3)ncc12` [Example 1036], the pKd on TYK2 JH2 is no less than 7.00. Besides, the pIC50 in experiment [1] was no less than 6.30.
For `CNc1ncc(-c2nc3ccc(N4CC(C)(O)C4)cn3n2)c2cc(NC(=O)C3CC3)ncc12` [Example 1037], at TYK2 JH2, the pKd is no less than 7.00. In experiment [1], the pIC50 was no less than 6.30.
As to `CNc1ncc(-c2nc3ccc(-n4cccn4)cn3n2)c2cc(NC(=O)C3CC3)ncc12` [Example 1038], the pKd at TYK2 JH2 is no less than 7.00. In addition, in experiment [1], the pIC50 is no less than 6.30.
Regarding `CNc1ncc(-c2nc3cccc(OC)n3n2)c2cc(NC(=O)C3CC3)ncc12` [Example 1039], at TYK2 JH2, the pKd is no less than 7.00. Moreover, the pIC50 in experiment [1] was no less than 6.30.
In the case of `CNc1ncc(-c2nc3ccc(C(F)F)cn3n2)c2cc(NC(=O)C3CC3)ncc12` [Example 1040], the pKd at TYK2 JH2 is no less than 7.00. The pIC50 in experiment [1] is no less than 6.30.
With `CNc1ncc(-c2nc3ccc(C(C)(C)O)cn3n2)c2cc(NC(=O)C3CC3)ncc12` [Example 1041], the pKd at TYK2 JH2 was no less than 7.00. Moreover, the pIC50 in experiment [1] was no less than 6.30.
Consider `CNc1ncc(-c2nc3ccc(-c4ccn(C)n4)cn3n2)c2cc(NC(=O)C3CC3)ncc12` [Example 1042], for which the pKd at TYK2 JH2 is no less than 7.00. In addition, the pIC50 in experiment [1] was no less than 6.30.
For the compound `CNc1ncc(-c2nc3ccc(N4CCOC(C(C)O)C4)cn3n2)c2cc(NC(=O)C3CC3)ncc12` (stereo not drawn) [Example 1043], the pKd at TYK2 JH2 is no less than 7.00. Also, the pIC50 in experiment [1] was no less than 6.30.
As to `CNc1ncc(-c2nc3ccc(N4CCOC(C(C)(C)F)C4)cn3n2)c2cc(NC(=O)C3CC3)ncc12` (stereo not drawn) [Example 1048], at TYK2 JH2, the pKd was no less than 7.00. Also, the pIC50 in experiment [1] was no less than 6.30.
`CNc1ncc(-c2cn3cc(N4CCO[C@H](C)C4)ccc3n2)c2cc(NC(=O)C3CC3)ncc12` [Example 1051]: at TYK2 JH2, the pKd was no less than 7.00. The pIC50 in experiment [1] was no less than 6.30.
As for `CNc1ncc(-c2cn3cc(N4CCO[C@@H](C)C4)ccc3n2)c2cc(NC(=O)C3CC3)ncc12` [Example 1052], at TYK2 JH2, the pKd is no less than 7.00. Besides, the pIC50 in experiment [1] is no less than 6.30.
`CNc1ncc(-c2nc3ccc(N4CCOC(CCCO)C4)cn3n2)c2cc(NC(=O)C3CC3)ncc12` (stereo not drawn) [Example 1053]: the pKd on TYK2 JH2 was no less than 7.00. Also, the pIC50 in experiment [1] is no less than 6.30.
With `CNc1ncc(-c2cc3cc(OC)ccc3o2)c2cc(NC(=O)C3CC3)ncc12` [Example 1054], the pKd on TYK2 JH2 is no less than 7.00. In addition, in experiment [1], the pIC50 is no less than 6.30.
Regarding `CNc1ncc(-c2cn3cc(C)cc(F)c3n2)c2cc(NC(=O)C3CC3)ncc12` [Example 1055], the pKd at TYK2 JH2 was no less than 7.00. Further, the pIC50 in experiment [1] was no less than 6.30.
In the case of `CNc1ncc(-c2cn3cc(C)ccc3n2)c2cc(NC(=O)C3CC3)ncc12` [Example 1056], on TYK2 JH2, the pKd is no less than 7.00. For the same compound, the pIC50 in experiment [1] was no less than 6.30.
`CNc1ncc(-c2nc3cc(N4CCOC(C(F)F)C4)ccc3o2)c2cc(NC(=O)[C@H]3C[C@H]3C)ncc12` (stereo partly drawn) [Example 1057, (1S,2R)—N-(5-(5-(2-(difluoromethyl)morpholino)benzo[d]oxazol-2-yl)-8-(methylamino)-2,7-naphthyridin-3-yl)-2-methylcyclopropane-1-carboxamide]: the pKd at TYK2 JH2 was no less than 7.00. The pIC50 in experiment [1] was no less than 6.30.
Turning to `CNc1ncc(-c2nc3cc(N4CCO[C@H](C(F)F)C4)ccc3o2)c2cc(NC(=O)[C@H]3C[C@H]3C)ncc12` [Example 1058], at TYK2 JH2, the pKd was no less than 7.00. In addition, in experiment [1], the pIC50 was no less than 6.30.
As for `CNc1ncc(-c2nc3cc(N4CCO[C@@H](C(F)F)C4)ccc3o2)c2cc(NC(=O)[C@H]3C[C@H]3C)ncc12` [Example 1059], the pKd at TYK2 JH2 is no less than 7.00. For the same compound, the pIC50 in experiment [1] was no less than 6.30.
With `CNc1ncc(-c2nc3cc(OC)ccc3o2)c2cc(NC(=O)[C@H]3C[C@@H]3C)ncc12` [Example 1060, (1S,2S)-N-(5-(5-methoxybenzo[d]oxazol-2-yl)-8-(methylamino)-2,7-naphthyridin-3-yl)-2-methylcyclopropane-1-carboxamide], the pKd on TYK2 JH2 was no less than 7.00. In addition, the pIC50 in experiment [1] is no less than 6.30.
On to `CNc1ncc(-c2nc3cc(OC)ccc3o2)c2cc(NC(=O)[C@@H]3C[C@H]3C)ncc12` [Example 1061, (1R,2R)-N-(5-(5-methoxybenzo[d]oxazol-2-yl)-8-(methylamino)-2,7-naphthyridin-3-yl)-2-methylcyclopropane-1-carboxamide], for which the pKd at TYK2 JH2 is no less than 7.00. In experiment [1], the pIC50 is no less than 6.30.
As to `CNc1ncc(-c2nc3cc(N4C[C@@H](C)O[C@@H](C)C4)ccc3o2)c2cc(NC(=O)[C@@H]3C[C@@H]3F)ncc12` [Example 1062, (1S,2S)-N-[5-[5-[(2R,6S)-2,6-dimethylmorpholin-4-yl]-1,3-benzoxazol-2-yl]-8-(methylamino)-2,7-naphthyridin-3-yl]-2-fluoro-cyclopropanecarboxamide], the pKd on TYK2 JH2 is no less than 7.00. In experiment [1], the pIC50 is no less than 6.30.
As for `CNc1ncc(-c2nc3cc(N4C[C@@H](C)O[C@@H](C)C4)ccc3o2)c2cc(NC(=O)[C@H]3C[C@H]3C)ncc12` [Example 1063, (1S,2R)-N-[5-[5-[(2R,6S)-2,6-dimethylmorpholin-4-yl]-1,3-benzoxazol-2-yl]-8-(methylamino)-2,7-naphthyridin-3-yl]-2-methyl-cyclopropanecarboxamide], the pKd on TYK2 JH2 was no less than 7.00. In addition, in experiment [1], the pIC50 was no less than 6.30.
Regarding `CNc1ncc(-c2nc3cc(N4CCOCC4)ccc3o2)c2cc(NC(=O)C3C[C@@H]3C(F)(F)F)ncc12` (stereo partly drawn) [Example 1065, N-(8-(methylamino)-5-(5-morpholinobenzo[d]oxazol-2-yl)-2,7-naphthyridin-3-yl)-2-(trifluoromethyl)cyclopropane-1-carboxamide], at TYK2 JH2, the pKd was no less than 7.00. The pIC50 in experiment [1] was no less than 6.30.
For `CNc1ncc(-c2nc3cc(N4C[C@H](C)O[C@@H](C)C4)ccc3o2)c2cc(NC(=O)[C@H]3C[C@H]3C)ncc12` [Example 1068, (1S,2R)-N-[5-[5-[(2S,6S)-2,6-dimethylmorpholin-4-yl]-1,3-benzoxazol-2-yl]-8-(methylamino)-2,7-naphthyridin-3-yl]-2-methyl-cyclopropanecarboxamide], on TYK2 JH2, the pKd was no less than 7.00. Also, the pIC50 in experiment [1] is no less than 6.30.
For `CNc1ncc(-c2nc3cc(N4C[C@@H](C)O[C@H](C)C4)ccc3o2)c2cc(NC(=O)[C@H]3C[C@H]3C)ncc12` [Example 1070, (1S,2R)-N-(5-(5-((2R,6R)-2,6-dimethylmorpholino)benzo[d]oxazol-2-yl)-8-(methylamino)-2,7-naphthyridin-3-yl)-2-methylcyclopropane-1-carboxamide], the pKd on TYK2 JH2 is no less than 7.00. The pIC50 in experiment [1] is no less than 6.30.
The matching figures for `CNc1ncc(-c2nc3ccc(N4CCOCC4)cn3n2)c2cc(NC(=O)C3CC3(F)F)ncc12` (stereo not drawn) [Example 1071, 2,2-difluoro-N-(8-(methylamino)-5-(6-morpholino-[1,2,4]triazolo[1,5-a]pyridin-2-yl)-2,7-naphthyridin-3-yl)cyclopropane-1-carboxamide]: no less than 7.00 and no less than 6.30.
As to `CNc1ncc(-c2nc3ccc(N4CCOCC4)cn3n2)c2cc(NC(=O)C3(C(F)F)CC3)ncc12` [Example 1072, 1-(difluoromethyl)-N-[8-(methylamino)-5-(6-morpholino-[1,2,4]triazolo[1,5-a]pyridin-2-yl)-2,7-naphthyridin-3-yl]cyclopropanecarboxamide], the pKd at TYK2 JH2 is no less than 7.00. In addition, the pIC50 in experiment [1] was no less than 6.30.
As for `CNc1ncc(C#Cc2ccc(OCF)cc2)c2cc(NC(=O)[C@H]3C[C@H]3C)ncc12` [Example 1073, (1S,2R)-N-[5-[2-[4-(fluoromethoxy)phenyl]ethynyl]-8-(methylamino)-2,7-naphthyridin-3-yl]-2-methyl-cyclopropanecarboxamide], the pKd on TYK2 JH2 is no less than 7.00. In addition, the pIC50 in experiment [1] was no less than 6.30.
In the same order, the values of `CNc1ncc(C#Cc2ccc(N3CCOCC3)cc2)c2cc(NC(=O)[C@H]3C[C@H]3C)ncc12` [Example 1076, (1S,2R)-2-methyl-N-(8-(methylamino)-5-((4-morpholinophenyl)ethynyl)-2,7-naphthyridin-3-yl)cyclopropane-1-carboxamide] are no less than 7.00 and no less than 6.30.
The matching figures for `CCC1CN(c2ccc3nc(-c4cnc(NC)c5cnc(NC(=O)[C@H]6C[C@H]6C)cc45)nn3c2)CCO1` (stereo partly drawn) [Example 1077, (1S,2R)-N-[5-[6-(2-ethylmorpholin-4-yl)-[1,2,4]triazolo[1,5-a]pyridin-2-yl]-8-(methylamino)-2,7-naphthyridin-3-yl]-2-methyl-cyclopropanecarboxamide]: no less than 7.00 and no less than 6.30.
Regarding `CNc1ncc(-c2nc3ccc(N4CCO[C@@H](C)C4)cn3n2)c2cc(NC(=O)C3CC3(C)C)ncc12` (stereo partly drawn) [Example 1080, 2,2-dimethyl-N-(8-(methylamino)-5-(6-((S)-2-methylmorpholino)-[1,2,4]triazolo[1,5-a]pyridin-2-yl)-2,7-naphthyridin-3-yl)cyclopropane-1-carboxamide], the pKd at TYK2 JH2 is no less than 7.00. Further, the pIC50 in experiment [1] was no less than 6.30.
